Experiment [1] deals with Escherichia coli. In words: Inhibitory activity against Escherichia coli ANSI. Format: functional.
The test system of experiment [2] is Mycobacterium tuberculosis. In words: Inhibitory activity against Mycobacterium tuberculosis H37Rv. Format: functional.
Experiment [3] concerns the target T1, 3-oxoacyl-[acyl-carrier-protein] synthase 1 (Escherichia coli K-12, UniProt P0A953).
T1 sequence (P0A953 whole entry): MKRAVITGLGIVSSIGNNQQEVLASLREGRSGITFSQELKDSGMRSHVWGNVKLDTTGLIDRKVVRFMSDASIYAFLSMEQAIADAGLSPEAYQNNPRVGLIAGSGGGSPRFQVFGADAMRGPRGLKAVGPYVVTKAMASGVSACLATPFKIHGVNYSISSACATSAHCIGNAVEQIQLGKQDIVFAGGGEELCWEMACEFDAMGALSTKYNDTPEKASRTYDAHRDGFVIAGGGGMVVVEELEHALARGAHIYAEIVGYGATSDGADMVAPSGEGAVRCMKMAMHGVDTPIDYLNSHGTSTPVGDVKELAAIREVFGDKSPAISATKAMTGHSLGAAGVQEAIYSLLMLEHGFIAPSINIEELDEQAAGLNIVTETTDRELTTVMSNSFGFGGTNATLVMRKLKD
As to the kind of experiment: Inhibitory activity against FabB from Escherichia coli ANSI.

The target of experiment [4] is Fatty acid synthase (Homo sapiens, UniProt P49327). As to the kind of experiment: Inhibitory activity against human FAS1.

Converted amounts (≈) assume the structure as drawn.

For 1 compound, MIC and IC50 results are on record in ChEMBL document CHEMBL1148604 (J Med Chem, 2006).

Chain of Fatty acid synthase (P49327 whole entry): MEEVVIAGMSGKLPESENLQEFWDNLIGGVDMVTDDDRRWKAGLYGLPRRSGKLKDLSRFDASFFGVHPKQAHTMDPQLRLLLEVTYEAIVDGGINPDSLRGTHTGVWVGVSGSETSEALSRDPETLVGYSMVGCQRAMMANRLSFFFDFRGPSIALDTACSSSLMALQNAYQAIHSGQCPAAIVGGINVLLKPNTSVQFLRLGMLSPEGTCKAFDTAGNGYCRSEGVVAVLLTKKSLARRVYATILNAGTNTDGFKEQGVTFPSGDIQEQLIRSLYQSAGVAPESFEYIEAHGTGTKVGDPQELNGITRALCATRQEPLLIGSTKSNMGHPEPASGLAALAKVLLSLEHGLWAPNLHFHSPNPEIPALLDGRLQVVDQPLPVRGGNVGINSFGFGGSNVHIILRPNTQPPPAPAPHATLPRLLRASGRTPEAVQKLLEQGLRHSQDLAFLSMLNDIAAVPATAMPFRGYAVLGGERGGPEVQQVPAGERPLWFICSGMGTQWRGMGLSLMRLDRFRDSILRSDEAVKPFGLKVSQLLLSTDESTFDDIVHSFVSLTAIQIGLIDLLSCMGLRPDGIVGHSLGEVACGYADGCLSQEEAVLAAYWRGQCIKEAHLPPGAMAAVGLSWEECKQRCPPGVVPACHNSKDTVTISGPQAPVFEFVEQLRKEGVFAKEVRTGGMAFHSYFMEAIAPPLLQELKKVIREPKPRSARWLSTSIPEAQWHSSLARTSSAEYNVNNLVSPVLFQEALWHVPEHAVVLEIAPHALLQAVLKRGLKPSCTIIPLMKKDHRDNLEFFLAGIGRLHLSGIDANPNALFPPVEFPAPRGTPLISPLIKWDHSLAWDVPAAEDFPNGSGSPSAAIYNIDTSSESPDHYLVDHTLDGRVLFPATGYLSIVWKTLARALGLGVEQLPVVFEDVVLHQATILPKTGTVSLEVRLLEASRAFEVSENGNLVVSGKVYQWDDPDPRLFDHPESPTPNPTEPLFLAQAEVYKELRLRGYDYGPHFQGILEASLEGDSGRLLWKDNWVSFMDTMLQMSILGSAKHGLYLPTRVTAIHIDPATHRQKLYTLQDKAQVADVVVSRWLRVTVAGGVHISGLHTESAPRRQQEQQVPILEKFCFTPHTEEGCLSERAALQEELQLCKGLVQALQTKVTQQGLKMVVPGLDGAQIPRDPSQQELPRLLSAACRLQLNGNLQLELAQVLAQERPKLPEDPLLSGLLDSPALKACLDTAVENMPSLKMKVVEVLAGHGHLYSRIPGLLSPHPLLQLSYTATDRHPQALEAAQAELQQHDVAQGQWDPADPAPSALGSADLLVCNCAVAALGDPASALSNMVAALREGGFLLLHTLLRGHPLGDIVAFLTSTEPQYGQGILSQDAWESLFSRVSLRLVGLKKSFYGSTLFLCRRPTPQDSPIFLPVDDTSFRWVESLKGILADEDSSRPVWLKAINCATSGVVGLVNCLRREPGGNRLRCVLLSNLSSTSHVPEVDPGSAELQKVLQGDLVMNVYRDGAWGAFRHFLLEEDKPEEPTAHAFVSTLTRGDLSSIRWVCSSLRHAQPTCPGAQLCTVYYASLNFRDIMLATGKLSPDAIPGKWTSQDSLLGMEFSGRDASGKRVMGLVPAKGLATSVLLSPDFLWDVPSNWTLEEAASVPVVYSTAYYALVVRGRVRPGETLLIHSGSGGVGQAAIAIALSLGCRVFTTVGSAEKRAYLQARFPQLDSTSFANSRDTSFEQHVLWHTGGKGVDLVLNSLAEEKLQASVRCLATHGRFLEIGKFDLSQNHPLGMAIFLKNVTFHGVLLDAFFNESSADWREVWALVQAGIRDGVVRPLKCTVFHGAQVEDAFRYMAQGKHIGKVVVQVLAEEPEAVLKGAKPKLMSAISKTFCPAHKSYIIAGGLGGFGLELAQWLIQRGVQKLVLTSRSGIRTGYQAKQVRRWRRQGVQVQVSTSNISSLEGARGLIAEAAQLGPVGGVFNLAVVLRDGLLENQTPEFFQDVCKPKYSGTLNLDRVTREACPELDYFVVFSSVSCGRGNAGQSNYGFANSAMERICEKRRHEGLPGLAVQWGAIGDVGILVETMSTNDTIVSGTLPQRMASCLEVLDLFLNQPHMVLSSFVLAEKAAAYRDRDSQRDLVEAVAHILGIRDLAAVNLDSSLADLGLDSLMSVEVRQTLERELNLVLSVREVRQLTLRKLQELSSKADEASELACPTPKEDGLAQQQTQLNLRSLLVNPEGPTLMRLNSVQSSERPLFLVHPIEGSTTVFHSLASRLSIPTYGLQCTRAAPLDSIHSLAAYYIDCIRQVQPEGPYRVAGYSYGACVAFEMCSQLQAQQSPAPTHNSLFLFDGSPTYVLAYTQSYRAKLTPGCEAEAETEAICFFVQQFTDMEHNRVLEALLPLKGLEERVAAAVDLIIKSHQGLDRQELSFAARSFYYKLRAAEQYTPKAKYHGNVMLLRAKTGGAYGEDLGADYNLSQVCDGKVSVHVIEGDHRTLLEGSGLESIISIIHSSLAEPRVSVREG

As a reminder, the MIC is the least concentration at which growth counts as inhibited. In general, IC50 refers to the concentration that gives 50% inhibition. Low values mean higher potency, high ones lower potency. On to `C=C/C(C)=C/C1(C)SC(O)=C(C)C1=O` (racemic) [RAC-THIOLACTOMYCIN], for which the MIC in experiment [1] was determined as 12 µM (≈ 2.52 µg/mL); in experiment [2] it was 125 µM (≈ 26.3 µg/mL). The IC50 in experiment [3] was 20 µM; in experiment [4], 143 µM.
